# Reference: US20230203081A1, “LINCOSAMIDE ANTIBIOTICS AND USES THEREOF” (President and Fellows of Harvard College, priority 2020, published 2023)
# Like-named read-outs stand apart in the source and are kept apart here.
# Key:
# Format in all cases: cell-based
# S. aureus MP-549 msrA = assay: microbe, parasite or virus in culture
# Method in brief: (§1)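 Inoculum for broth microdilution was 5×10^5 CFU/mL final, prepared from overnight 35° C blood-agar subcultures (separate handling for streptococcal and anaerobic strains); MICs read by CLSI broth microdilution or agar dilution.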
# E. coli ΔTolC = assay: microbe, parasite or virus in culture; settings: Escherichia coli, E. coli HAV#038; ΔTolC
# Method in brief: as §1
# C. difficile ATCC 700057 = assay: MIC (broth microdilution or agar dilution, CLSI)
# Method in brief: (§2)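 Following CLSI guidelines, broth microdilution or agar dilution spans usually 128-0.06 μg/mL (2.5% DMSO final), triplicate runs, clindamycin comparator. Inocula for broth work are 5×10^5 CFU/mL in cation-adjusted Mueller-Hinton; anaerobic strains get specialized handling.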
# B. fragilis ATCC 25285 = assay: MIC (broth microdilution or agar dilution, CLSI)
# Method in brief: as §2
# S. pyogenes ATCC 19615 = assay: MIC (broth microdilution or agar dilution, CLSI)
# Method in brief: as §1
# K. pneumoniae ATCC 10031 = assay: MIC (broth microdilution or agar dilution, CLSI)
# Method in brief: as §1
# S. pneumoniae ATCC 49619 = assay: MIC (broth microdilution or agar dilution, CLSI)
# Method in brief: as §1
# H. influenzae ATCC 49247 = assay: MIC (broth microdilution or agar dilution, CLSI)
# Method in brief: as §1
# E. faecalis ATCC 29212 = assay: MIC (broth microdilution or agar dilution, CLSI)
# Method in brief: as §1
# E. coli LptD = assay: MIC (broth microdilution or agar dilution, CLSI); settings: Escherichia coli, E. coli HAV#040; LptD; read-out: MIC
# Method in brief: as §1
# E. coli ATCC 25922 = assay: MIC (broth microdilution or agar dilution, CLSI)
# Method in brief: as §1
# S. aureus ATCC 29213 = assay: MIC (broth microdilution or agar dilution, CLSI)
# Method in brief: as §1
# S. aureus BAA 977 iErmA = assay: microbe, parasite or virus in culture
# Method in brief: as §1
# C. scindens ATCC 35704 = assay: MIC (broth microdilution or agar dilution, CLSI); settings: C. scindens ATCC 35704
# Method in brief: as §2
# [1] = system: E. coli MP-74 LptD mutant; assay: MIC (broth microdilution or agar dilution, CLSI)
# Method in brief: as §2
# [2] = system: S. pneumoniae MMX 3028 cErmB; assay: MIC (broth microdilution or agar dilution, CLSI); settings: S. pneumoniae MMX 3028 cErmB
# Method in brief: as §1
# [3] = system: S. pyogenes MMX 946; cErmB; assay: MIC (broth microdilution or agar dilution, CLSI); settings: S. pyogenes MMX 946, cErmB
# Method in brief: as §1
# E. coli MP-9 ΔTolC = assay: MIC (broth microdilution or agar dilution, CLSI)
# Method in brief: as §1
# [4] = system: S. pneumoniae MMX 3031 cMefA; assay: MIC (broth microdilution or agar dilution, CLSI); settings: S. pneumoniae MMX 3031 cMefA
# Method in brief: as §1
# [5] = system: E. faecalis MMX 847; cErmB; assay: MIC (broth microdilution or agar dilution, CLSI); settings: E. faecalis MMX 847, cErmB
# Method in brief: as §1
# S. aureus MMX 3035 cErmA = assay: MIC (broth microdilution or agar dilution, CLSI); settings: S. aureus MMX 3035 cErmA
# Method in brief: as §1
# [6] = Staphylococcus aureus, MP549MSRA, S. aureus MP-549 msrA
# [7] = Streptococcus pyogenes, ATCC19615, S. pyogenes ATCC 19615, read-out: MIC
# [8] = Streptococcus pneumoniae, ATCC49619, S. pneumoniae ATCC 49619, read-out: MIC
# [9] = Streptococcus pneumoniae, MMX3028CERMB, read-out: MIC
# [10] = Haemophilus influenzae, ATCC49247, H. influenzae ATCC 49247, read-out: MIC
# [11] = Streptococcus pyogenes, read-out: MIC
# [12] = Streptococcus pneumoniae, MMX3031CMEFA, read-out: MIC
# [13] = Enterococcus faecalis, ATCC29212, E. faecalis ATCC 29212, read-out: MIC
# [14] = Escherichia coli, ATCC25922, E. coli ATCC 25922, read-out: MIC
# [15] = Enterococcus faecalis, read-out: MIC
# [16] = Staphylococcus aureus, ATCC29213, S. aureus ATCC 29213, read-out: MIC
# [17] = Staphylococcus aureus, MMX3035CERMA, read-out: MIC
SMILES,MIC (S. aureus MP-549 msrA; [6]),"MIC (S. aureus BAA 977 iErmA; Staphylococcus aureus, BAA977)",MIC ([1]; Escherichia coli),MIC (S. pyogenes ATCC 19615; [7]),MIC (S. pneumoniae ATCC 49619; [8]),"MIC [2, 9]",MIC (H. influenzae ATCC 49247; [10]),"MIC [3, 11]",MIC (E. coli MP-9 ΔTolC; Escherichia coli),"MIC [4, 12]",MIC (E. faecalis ATCC 29212; [13]),MIC (E. coli ATCC 25922; [14]),"MIC [5, 15]",MIC (S. aureus ATCC 29213; [16]),MIC (S. aureus MMX 3035 cErmA; [17]),also measured
CCN1CCN(c2cc3c(cc2F)c(=O)c(C(=O)O)cn3C2CC2)CC1 [Enrofloxacin],,,,,,,,,,,,,,,,"MIC (S. aureus MP-549 msrA; Staphylococcus aureus, MP549MSRA, S. aureus HAV#032, MP-549, MSR(A), read-out: MIC): 0.5 µg/mL; MIC (E. coli ΔTolC): ≤ 0.06 µg/mL; MIC (C. difficile ATCC 700057; Clostridioides difficile, ATCC700057, C. difficile HAV#011, ATCC 700057, read-out: MIC): 32 µg/mL; MIC (B. fragilis ATCC 25285; Bacteroides fragilis, ATCC25285, B. fragilis HAV#013, ATCC 25285, read-out: MIC): 2 µg/mL; MIC (S. pyogenes ATCC 19615; Streptococcus pyogenes, ATCC19615, S. pyogenes HAV#004, ATCC 19615, read-out: MIC): 0.25 µg/mL; MIC (K. pneumoniae ATCC 10031; Klebsiella pneumoniae, ATCC10031, K. pneumoniae HAV#008, ATCC 10031, read-out: MIC): ≤ 0.06 µg/mL; MIC (S. pneumoniae ATCC 49619; Streptococcus pneumoniae, ATCC49619, S. pneumoniae HAV#003, ATCC 49619, read-out: MIC): 0.25 µg/mL; MIC (H. influenzae ATCC 49247; Haemophilus influenzae, ATCC49247, H. influenzae HAV#007, ATCC 49247, read-out: MIC): ≤ 0.06 µg/mL; MIC (E. faecalis ATCC 29212; Enterococcus faecalis, ATCC29212, E. faecalis HAV#005, ATCC 29212, read-out: MIC): 0.5 µg/mL; MIC (E. coli LptD): ≤ 0.06 µg/mL; MIC (E. coli ATCC 25922; Escherichia coli, ATCC25922, E. coli HAV#006, ATCC 25922, read-out: MIC): ≤ 0.06 µg/mL; MIC (S. aureus ATCC 29213; Staphylococcus aureus, ATCC29213, S. aureus HAV#001, ATCC 29213, MP-549, read-out: MIC): 0.125 µg/mL"
CSC1O[C@H]([C@H](NC(=O)[C@H]2NC[C@@H]3C[C@@H](C(C)C)CCO[C@H]32)[C@H](C)Cl)C(O)[C@@H](O)[C@H]1O (stereo partly shown) [FSA-512078a],,,,,,,,,,,,,,,,MIC (S. aureus MP-549 msrA; S. aureus MP-549 msrA): 0.06 µg/mL; MIC (S. aureus BAA 977 iErmA; S. aureus BAA 977 iErmA): 0.06 µg/mL; MIC (C. scindens ATCC 35704): 0.25 µg/mL; MIC (C. difficile ATCC 700057; C. difficile ATCC 700057): 1 µg/mL; MIC (B. fragilis ATCC 25285; B. fragilis ATCC 25285): 1 µg/mL; MIC ([1]; E. coli MP-74 LptD mutant): 4 µg/mL; MIC (S. pyogenes ATCC 19615; S. pyogenes ATCC 19615): 0.02 µg/mL; MIC (K. pneumoniae ATCC 10031; K. pneumoniae ATCC 10031): 1 µg/mL; MIC (S. pneumoniae ATCC 49619; S. pneumoniae ATCC 49619): 0.03 µg/mL; MIC [2]: 8 µg/mL; MIC (H. influenzae ATCC 49247; H. influenzae ATCC 49247): 8 µg/mL; MIC [3]: 8 µg/mL; MIC (E. coli MP-9 ΔTolC; E. coli MP-9 ΔTolC): 2 µg/mL; MIC [4]: 0.03 µg/mL; MIC (E. faecalis ATCC 29212; E. faecalis ATCC 29212): 0.25 µg/mL; MIC (E. coli ATCC 25922; E. coli ATCC 25922): 32 µg/mL; MIC [5]: 32 µg/mL; MIC (S. aureus ATCC 29213; S. aureus ATCC 29213): 0.06 µg/mL; MIC (S. aureus MMX 3035 cErmA): 32 µg/mL
CSC1O[C@H]([C@H](NC(=O)[C@H]2NC[C@@H]3C[C@H](C(C)C)CCO[C@H]32)[C@H](C)Cl)C(O)[C@@H](O)[C@H]1O (stereo partly shown) [FSA-512078b],,,,,,,,,,,,,,,,MIC (S. aureus MP-549 msrA; S. aureus MP-549 msrA): 0.25 µg/mL; MIC ([1]; E. coli MP-74 LptD mutant): 16 µg/mL; MIC (S. pyogenes ATCC 19615; S. pyogenes ATCC 19615): ≤0.12 µg/mL; MIC (K. pneumoniae ATCC 10031; K. pneumoniae ATCC 10031): 4 µg/mL; MIC (H. influenzae ATCC 49247; H. influenzae ATCC 49247): 32 µg/mL; MIC (E. coli MP-9 ΔTolC; E. coli MP-9 ΔTolC): 4 µg/mL; MIC (E. faecalis ATCC 29212; E. faecalis ATCC 29212): 0.5 µg/mL; MIC (E. coli ATCC 25922; E. coli ATCC 25922): 128 µg/mL; MIC (S. aureus ATCC 29213; S. aureus ATCC 29213): 0.5 µg/mL
CSC1O[C@H]([C@H](NC(=O)[C@@H]2[C@@H]3OCC[C@@H](C4CCCC4)C[C@H]3CN2C)[C@H](C)Cl)CC(O)[C@H]1O (stereo partly shown) [FSA-513001b],0.12 µg/mL,0.12 µg/mL,4 µg/mL,0.06 µg/mL,0.06 µg/mL,16 µg/mL,4 µg/mL,16 µg/mL,2 µg/mL,≤ 0.06 µg/mL,0.12 µg/mL,64 µg/mL,16 µg/mL,0.12 µg/mL,32 µg/mL,
CSC1O[C@H]([C@H](NC(=O)[C@@H]2[C@@H]3OCC[C@H](C4CCCCC4)C[C@H]3CN2C)[C@H](C)Cl)CC(O)[C@H]1O (stereo partly shown) [FSA-513002a],,,64 µg/mL,1 µg/mL,0.5 µg/mL,,> 64 µg/mL,,64 µg/mL,,2 µg/mL,> 64 µg/mL,,1 µg/mL,,
CSC1O[C@H]([C@H](NC(=O)[C@@H]2[C@@H]3OCC[C@@H](C4CCCCC4)C[C@H]3CN2C)[C@H](C)Cl)CC(O)[C@H]1O (stereo partly shown) [FSA-513002b],,,16 µg/mL,0.25 µg/mL,0.25 µg/mL,,8 µg/mL,,8 µg/mL,,0.5 µg/mL,128 µg/mL,,0.5 µg/mL,,
CSC1O[C@H]([C@H](NC(=O)[C@@H]2[C@@H]3OCC[C@H](CC(C)C)C[C@H]3CN2C)[C@H](C)Cl)CC(O)[C@H]1O (stereo partly shown) [FSA-513003a],0.12 µg/mL,0.12 µg/mL,2 µg/mL,0.06 µg/mL,0.06 µg/mL,8 µg/mL,2 µg/mL,8 µg/mL,1 µg/mL,≤ 0.06 µg/mL,0.12 µg/mL,32 µg/mL,8 µg/mL,0.12 µg/mL,16 µg/mL,
CSC1O[C@H]([C@H](NC(=O)[C@@H]2[C@@H]3OCC[C@H](CC(C)(C)C)C[C@H]3CN2C)[C@H](C)Cl)CC(O)[C@H]1O (stereo partly shown) [FSA-513004a],,,128 µg/mL,0.25 µg/mL,0.5 µg/mL,,,,> 128 µg/mL,,1 µg/mL,,,1 µg/mL,,"MIC (H. influenzae ATCC 49247; Haemophilus influenzae, ATCC49247): 128 µg/mL; MIC (E. coli ATCC 25922; Escherichia coli, ATCC25922, E. coli ATCC 25922): > 128 µg/mL"
CSC1O[C@H]([C@H](NC(=O)[C@H]2NC[C@@H]3C[C@@H](CC(C)C)CCO[C@H]32)[C@H](C)Cl)CC(O)[C@H]1O (stereo partly shown) [FSA-513018a],≤ 0.06 µg/mL,≤ 0.06 µg/mL,2 µg/mL,≤ 0.06 µg/mL,≤ 0.06 µg/mL,0.5 µg/mL,2 µg/mL,0.5 µg/mL,0.5 µg/mL,≤ 0.06 µg/mL,≤ 0.06 µg/mL,16 µg/mL,2 µg/mL,≤ 0.06 µg/mL,8 µg/mL,
